According to US4874759A, “5-Hydroxyindole-3-carboxylic acid amide compounds, pharmaceutical compositions and use” (Yoshitomi Pharmaceutical Industries, Ltd., priority 1987, dated 1989):

Legend:
[1] = test system: right vertebrartery; assay: Action on vertebrarterial blood flow (perfused right vertebral artery of anesthetized dog); format: in vivo, mongrel adult dog; settings: into vertebral artery, maximum increase by 100 μg papaverine hydrochloride = 100%
Experimental: After mongrel adult dog was anesthetized by intravenous administration of sodium pentobarbital at the dose of 25 mg/kg body weight, the right vertebrartery was perfused and the volume of blood flow was measured. The test compounds were administered in the vertebral artery.
With the maximum increase rate in the blood flow being taken as 100% when 100 μg of papaverine hydrochloride (1-[(3,4-dimethoxyphenyl)methyl]-6,7-dimethoxyisoquinoline hydrochloride) was administered in the vertebral artery, the effects of the test compounds were represented by ED100 (μg) which denotes the dose required for attaining an increased rate of the blood flow of 100%.

[2] = molecular target: T1, 5-lipoxygenase (Cavia porcellus, UniProt A0A286X958); assay: 5-Lipoxygenase-inhibitory action (5-HETE production from arachidonic acid); format: biochemical; settings: 3.4 μM [1-14C] arachidonic acid, 105,000×g supernatant of guinea pig polymorph leukocyte, 30° C., 3 minutes; read-out: 50% inhibitory concentration against the production of 5-HETE
T1 construct: supernatant fraction of intraperitoneal polymorph leukocyte of guinea pigs was prepared; from tissue; host or cells: peritoneal polymorphonuclear leukocytes of male guinea pigs (casein-elicited), 105,000×g supernatant
T1 sequence (A0A286X958 1-674): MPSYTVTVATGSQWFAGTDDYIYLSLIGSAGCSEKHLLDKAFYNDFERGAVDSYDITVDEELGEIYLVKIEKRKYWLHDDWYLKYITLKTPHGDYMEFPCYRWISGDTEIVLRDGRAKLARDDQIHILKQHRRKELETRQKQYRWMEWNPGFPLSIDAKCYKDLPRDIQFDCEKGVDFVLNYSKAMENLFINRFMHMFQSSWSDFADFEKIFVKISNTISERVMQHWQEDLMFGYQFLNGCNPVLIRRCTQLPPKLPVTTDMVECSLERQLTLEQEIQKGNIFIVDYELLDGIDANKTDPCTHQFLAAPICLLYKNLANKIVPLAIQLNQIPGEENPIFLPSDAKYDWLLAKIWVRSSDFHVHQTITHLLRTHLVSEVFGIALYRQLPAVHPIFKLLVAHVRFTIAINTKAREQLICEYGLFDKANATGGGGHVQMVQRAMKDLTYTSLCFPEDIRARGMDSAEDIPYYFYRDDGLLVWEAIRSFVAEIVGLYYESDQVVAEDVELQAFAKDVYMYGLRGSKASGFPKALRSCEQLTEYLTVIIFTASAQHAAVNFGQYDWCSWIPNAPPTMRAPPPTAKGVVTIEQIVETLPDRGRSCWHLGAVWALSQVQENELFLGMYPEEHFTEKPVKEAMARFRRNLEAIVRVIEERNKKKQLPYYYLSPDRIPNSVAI
Experimental: In accordance with the method of Ochi et al (J. Biol. Chem., vol. 258, pp. 5754-5758 (1983)), the 105,000×g supernatant fraction of intraperitoneal polymorph leukocyte of guinea pigs was prepared, and the capability of producing 5-hydroxyeicosatetraenoic acid (5-HETE) from arachidonic acid was assayed.
Male guinea pigs weighing about 500 g were intraperitoneally administered with 1/10 volume (at the dose of 10 ml/100 g body weight) of a 2% casein solution and operated in the abdomen 16-18 hours after the administration. The intraperitoneal effusion was taken and the insdie of the abdomen was washed with a saline solution containing 10 mM phosphate buffer solution (pH 7.4) twice. The obtained effusion and the washing solution were collected and centrifuged at 150×g for five minutes. A 0.2% saline solution was added to the sediment, followed by hypotonic treatment to subject the mixed erythrocyte to hemolysis. After a 1.6% saline solution was added thereto to make the mixture isotonic, it was centrifuged in the same manner and suspended in 50 mM Hepes buffer solution (pH 8.0). The suspension was treated with supersonic waves (by Branson sonifier, model 185) and centrifuged at 10,000×g for 10 minutes. The supernatant was further centrifuged at 105,000×g for 60 minutes. The supernatant thus obtained was taken as the 5-lipoxygenase fraction which was freezed to -70° C. to be preserved. […]

[3] = test system: left coronary artery; assay: Action on coronary blood flow (perfused left coronary artery of anesthetized dog); format: in vivo, mongrel adult dog; settings: intracoronary, dose increasing coronary blood flow to 50% of the effect of 3 μg Nifedipine
Experimental: A mongrel adult dog was anesthetized by intravenous administration with sodium pentobarbital at the dose of 30 mg/kg body weight. In accordance with the method by Yago et al [Folia pharmacologica japonica, vol. 57, p. 380 (1961)], the left coronary artery was perfused and the volume of blood flow was measured. The test compounds were administered in the coronary artery at a dosage of 10 to 30 μl. The effects of the test compounds on the coronary blood flow were represented by ED50 (μg) which was determined as the dose required for increasing the coronary blood flow to the level of 50% of the effect which was attained by administering the coronary artery 3 μg of Nifedipine [dimethyl 2,6-dimethyl-4-(2-nitrophenyl)-1,4-dihydropyridine-3,5-dicarboxylate].

[4] = Diuretic action (oral administration to rats; urine volume and electrolytes excreted within 6 hours); format: in vivo, Male Wistar strain rats; settings: rat, p.o., average value ± average error
Experimental: Male Wistar strain rats (each weighing 180 to 220 g, six animals per group) were subjected to the experiment after they had been fasted for 18 hours and further deprived of food and water for 3 hours.
After the rats were orally administered with test compounds suspended in a 0.9% saline solution at the dose of 25 ml/kg, each of them was put in a metabolic cage. The urine excreted within 6 hours after the administration was collected, and the urine volume and sodium (Na), potassium (K) and chlorine (Cl) ions were assayed. The urine sodium and potassium ions were measured by the flame spectrophotometry and the chlorine ions were measured by the chloride counter.
The test compounds were the compounds described below in Examples and the following (as applies to the following Pharmacological Experimental Examples), and the compounds numbers respectively correspond to the compound numbers described at the end of the compound names recited in Examples and the following. In the table, each of the numerals represents average value±average error and the mark * designates that the value is statistically significant as compared with the control by P<0.05 and mark ** designates that the value is statistically signficant by P<0.01.

[5] = Acute toxicity (mortality) in mice; format: in vivo, ddY strain mice; settings: ddY mice, 300 mg/kg

## CCCCN(CCCC)C(=O)c1c(C)n(CCc2ccccc2)c2cc(C(=O)CC)c(O)c(CN3CCCCC3)c12 [Compound (4), N,N-Dibutyl-5-hydroxy-2-methyl-1-(2-phenylethyl)-4-piperidinomethyl-6-propionylindole-3-carboxamide]
[1]
  Vertebrarterial vasodilating action, ED100: 63 µg
[2]
  IC50: 20 µM
[3]
  Coronary vasodilating action, ED50: 12 µg

## CCCCNC(=O)c1c(C)[nH]c2cc(Br)c(O)c(CN3CCCCC3)c12 [Compound (10), 6-Bromo-N-butyl-5-hydroxy-2-methyl-4-piperidinomethylindole-3-carboxamide]
[4]; 10.0 mg/kg
  Excretion of Electrolyte, Cl: 379 ± 35 μeq/100 g body weight/ 6 hrs.
  Excretion of Electrolyte, K: 73 ± 8 μeq/100 g body weight/ 6 hrs.
  Excretion of Electrolyte, Na: 402 ± 43 μeq/100 g body weight/ 6 hrs.
  Excretion of Electrolyte, Na/K: 5.8 ± 0.7
  Urine Volume: 2.6 ± 0.3 ml/100 g body weight/ 6 hrs.

## CCCCN(CCCC)C(=O)c1c(C)n(-c2ccccc2)c2cc(C(=O)CC)c(O)c(CN3CCCCC3)c12 [Compound (25), N,N-Dibutyl-5-hydroxy-2-methyl-1-phenyl-4-piperidinomethyl-6-propionylindole-3-carboxamide]
[1]
  Vertebrarterial vasodilating action, ED100: 76 µg
[2]
  IC50: 19 µM
[3]
  Coronary vasodilating action, ED50: 22 µg

## CCCCN(CCCC)C(=O)c1c(C)[nH]c2ccc(O)c(CN3CCCCC3)c12 [Compound (17), N,N-Dibutyl-5-hydroxy-2-methyl-4-piperidinomethylindole-3-carboxamide]
[4]; 10.0 mg/kg
  Excretion of Electrolyte, Cl: 358 ± 25 μeq/100 g body weight/ 6 hrs.
  Excretion of Electrolyte, K: 64 ± 4 μeq/100 g body weight/ 6 hrs.
  Excretion of Electrolyte, Na: 346 ± 28 μeq/100 g body weight/ 6 hrs.
  Excretion of Electrolyte, Na/K: 5.7 ± 0.9
  Urine Volume: 2.4 ± 0.2 ml/100 g body weight/ 6 hrs.

## CCCCNC(=O)c1c(C)n(CCCC)c2ccc(O)c(CN3CCCCC3)c12 [Compound (8), 1,N-Dibutyl-5-hydroxy-2-methyl-4-piperidinomethylindole-3-carboxamide]
[1]
  Vertebrarterial vasodilating action, ED100: 58 µg
[3]
  Coronary vasodilating action, ED50: 63 µg

## CCCCCCn1c(C)c(C(=O)N(CCCC)CCCC)c2c(CN3CCCCC3)c(O)c(C(=O)CC)cc21 [Compound (6), N,N-dibutyl-1-hexyl-5-hydroxy-2-methyl-4-piperidinomethyl-6-propionylindole-3-carboxamide]
[1]
  Vertebrarterial vasodilating action, ED100: 48 µg
[3]
  Coronary vasodilating action, ED50: 10 µg

## Cc1[nH]c2cc(Br)c(O)c(CN3CCCCC3)c2c1C(=O)N1CCOCC1 [Compound (2), 4-(6-Bromo-5-hydroxy-2-methyl-4-piperidinomethyl-1H-indol-3-ylcarbonyl)morpholine]
[5]; intraperitoneal
  Death of mice: none of them was observed to die
[5]; oral
  Death of mice: none of them was observed to die
[4]; 3.0 mg/kg
  Excretion of Electrolyte, Cl: 349 ± 27 μeq/100 g body weight/ 6 hrs.
  Excretion of Electrolyte, K: 95 ± 7 μeq/100 g body weight/ 6 hrs.
  Excretion of Electrolyte, Na: 284 ± 30 μeq/100 g body weight/ 6 hrs.
  Excretion of Electrolyte, Na/K: 3.1 ± 0.3
  Urine Volume: 2.0 ± 0.2 ml/100 g body weight/ 6 hrs.
